Results published in paper PMC7712428, “Dimethoate Induces DNA Damage and Mitochondrial Dysfunction Triggering Apoptosis in Rat Bone-Marrow and Peripheral Blood Cells” (Toxics, 2020).
Read-outs that look alike come from different tables or passages of the source.

Tests used:
Platelets = details: 72 h treatment
Eosinophils = details: 72 h treatment
From the text: (§1) The experimental animals—Rattus norvegicus (Wistar strain; 8–10 weeks old; 120 ± 20 gm; males only) were acquired from Indian Institute of Integrative Medicine (IIIM-CSIR) (Jammu, India), quarantined, acclimatized and sacrificed as per standard practice conforming to the University Ethical Regulations. After acclimatization, rats were divided into five groups by stratified randomization with five animals per group. […] Distilled water was used to prepare dosing solutions of test agent and injected via intraperitoneal (i.p.) injection. At 24, 48 and 72 h post-dosing, 5 rats per duration were sacrificed and necessary tissues were isolated for different cytogenetic and molecular parameters. For CA assessment, separate experimental lot was used due to colchicine treatment.
(§2) WBCs were isolated by following the protocol of Lone et al.. Blood was collected in 0.1% EDTA from retro-orbital plexus of rat, followed by incubation for 30 min. 500 µL of blood was then added to a centrifuge tube with 1 mL FACS lysing solution. The blood was incubated for 10 min and centrifuged (2000 rpm, 10 min) at 25 °C. After discarding the supernatant, pellet was washed in 1mL FACS lysing solution followed by centrifuging at 2000 rpm for 5 min. Repeated this step twice and then pellet was put in 500 µL of PBS, leaving only WBCs.
(§3) Protocol of Majeed and colleagues was employed for flow cytometric measurements of change in Ψm. […] Leukocytes were identified via forward and side scatter.

Neutrophils = system: Neutrophils
From the text: as §1, §2, §3

peripheral blood cells = details: Mean ± SD, 40 mg/kgbw
From the text: as §1
Detection of DNA strand break was performed according to protocol of Singh et al. with some modifications. Briefly, blood was collected using Retro-orbital bleeding during euthanasia. 10μL whole blood cells obtained were mixed with 75 µL of 0.5% LMPA and layered onto frosted slides which was pre-coated with NMA. After putting cover slip, slides were kept for 5–10min. After gelling, removed cover slip gently and added a layer of 90 μL of LMPA. After replacing the cover slip, slides were placed on the slide tray (ice packs) till the agarose layer hardened (5–10 min). Following this, removed the cover slip and by gently immersing the slides in lysis buffer embedded cells were lysed. Cells lysis was performed in cold conditions for a minimum of 2 h in lysing solution.
Alkaline conditions (pH > 13) were used to perform the electrophoresis. After lysis, slides were subjected in electrophoretic buffer at 4 °C for 40 min to achieve the DNA denaturation that allow the DNA unwinding and the expression of alkali labile site. Electrophoresis was then carried out at 0.74 V/cm for 40 min (300 mA; 24 volts) at 4 °C by raising or lowering buffer. Thereafter, neutralization buffer (0.4 M Tris, 10 M HCl; pH = 7.5) were employed to wash the slides. Slides were stained by 80 μL of 1× Ethidium Bromide and excess stain was removed by dipping in chilled distilled water. Slides were examined at 40× magnification under fluorescence microscope coupled with a charge coupled device camera (Olympus).

bone marrow cells = details: 40 mg/kgbw; for Total Aberrations (Mean ± SD): mean percentage; for MI (Mean ± SD): mitotic index mean percentage; for Structural Aberrations Assoc: number of associations; for Structural Aberrations Brk: number of breaks; for Structural Aberrations Del: number of deletions; for Structural Aberrations Dcn: number of dicentrics; for Structural Aberrations Frag: number of fragments; for Structural Aberrations Gp: number of gaps; for Structural Aberrations Ring: number of rings
From the text: as §1
Method of Preston et al. was used for preparing the metaphase chromosomes. An aqueous solution of Colchicine (4 mg/kgbw) was injected intraperitoneally 2 h prior to sacrificing the animal. Pre-warm KCL (0.075 M) solution was used to collect the bone marrow cells followed by incubation at 37 °C for 20 min, and then centrifuge at 1000 rpm for 10 min. After fixing the pellet in cold Cornoy’s fixative dropped onto clean pre-chilled glass slide in 30% ethanol and dried in air. 5% buffered Giemsa (pH 7.0) was used for staining. Chromosomal aberrations were analyzed on properly separated metaphases and finally photographed at 100× (Olympus U—PMTV microscope), using oil immersion. The metaphase cells from approximately 1000 cells per concentration per animal both in exposed and control replicates, expressed in percentage were considered for mitotic indices (MI).

O=P1(N(CCCl)CCCl)NCCCO1 (stereo not shown) [Cyclophosphamide, reference compound]
MMP loss (membrane potential loss) (Platelets): 81.1%
MMP loss (membrane potential loss) (Eosinophils): 54%
P9: percentage of reduced mitochondrial membrane potential (MMP loss) (Neutrophils; Figure 7, one experiment, Positive Control): 10.9%
MMP loss (membrane potential loss) (Neutrophils; neutrophils, 72 h treatment): 93.2%
Olive Tail Moment (peripheral blood cells; 24 h): 12.52 ± 0.81 ***^,a
Tail Length (µm) (peripheral blood cells; 24 h): 51.01 ± 3.71 ***^,a µm
Olive Tail Moment (peripheral blood cells; 48 h): 11.28 ± 0.84 ***^,a
Tail Length (µm) (peripheral blood cells; 48 h): 40.91 ± 2.86 ***^,a µm
Olive Tail Moment (peripheral blood cells; 72 h): 8.23 ± 0.73 ***^,a
Tail Length (µm) (peripheral blood cells; 72 h): 38.51 ± 1.05 ***^,a µm
Total Aberrations (Mean ± SD) (bone marrow cells; 24 h): 17.50 ± 3.33 ***^,a %
Total Aberrations (Mean ± SD) (bone marrow cells; 48 h): 13.66 ± 2.56 ***^,a %
Total Aberrations (Mean ± SD) (bone marrow cells; 72 h): 10.66 ± 2.61 ***^,a %
MI (Mean ± SD) (bone marrow cells; 24 h): 1.52 ± 0.05 **^,a %
MI (Mean ± SD) (bone marrow cells; 48 h): 1.56 ± 0.05 **^,a %
MI (Mean ± SD) (bone marrow cells; 72 h): 1.63 ± 0.03 **^,a %
Structural Aberrations Assoc (bone marrow cells; 24 h): 9
Structural Aberrations Assoc (bone marrow cells; 48 h): 7
Structural Aberrations Assoc (bone marrow cells; 72 h): 4
Structural Aberrations Brk (bone marrow cells; 24 h): 14
Structural Aberrations Brk (bone marrow cells; 48 h): 12
Structural Aberrations Brk (bone marrow cells; 72 h): 9
Structural Aberrations Del (bone marrow cells; 24 h): 23
Structural Aberrations Del (bone marrow cells; 48 h): 18
Structural Aberrations Del (bone marrow cells; 72 h): 15
Structural Aberrations Dcn (bone marrow cells; 24 h): 25
Structural Aberrations Dcn (bone marrow cells; 48 h): 18
Structural Aberrations Dcn (bone marrow cells; 72 h): 14
Structural Aberrations Frag (bone marrow cells; 24 h): 26
Structural Aberrations Frag (bone marrow cells; 48 h): 21
Structural Aberrations Frag (bone marrow cells; 72 h): 19
Structural Aberrations Gp (bone marrow cells; 24 h): 20
Structural Aberrations Gp (bone marrow cells; 48 h): 16
Structural Aberrations Gp (bone marrow cells; 72 h): 13
Structural Aberrations Ring (bone marrow cells; 24 h): 8
Structural Aberrations Ring (bone marrow cells; 48 h): 6
Structural Aberrations Ring (bone marrow cells; 72 h): 3
